What all share (assay type): cell-based
One assay deals with human cancer cell line. In words: Human cancer cell line activity compared with Dolastatin 10. Conditions: R-dolaphenine (Doe) substitution. The source says:
A series of Dolastatin 10 chiral isomers has been documented (See: Pettit et al., J. Med. Chem., 1990, 33, 3132). More recently these experiments were extended to synthesis of R-Doe-isodolastatin 10. […] The amide molecular length was then examined, starting with benzylamine, phenethylamine and 3-phenyl-1-propylamine. Also studied was a systematic series of modifications at the dolaphenine position introducing a substituted nitrogen instead of a phenyl ring.

Another assay has as its system P-388. Description: Murine P388 lymphocytic leukemia cell growth inhibition. Conditions: Mouse leukemia cell P-388. An excerpt: (§1) The extraordinary inhibition of cell growth shown by the tetrapeptide 6a-k against six major types of human cancer and against the murine P388 lymphocytic leukemia cell line has been presented in Table 1-2, below.
A further assay has as its system OVCAR-3. Description: NCI human tumor cell line screen, ovarian OVCAR-3. Conditions: for GI-50 / TGI: Human cancer cell; for LC-50: Human cancer cells. The source says: (§2) Current research in the control of cancer in the United States is coordinated by the National Cancer Institute (NCI). To determine whether a substance has anti-cancer properties, the NCI has established a systematic protocol. […] The protocol, and the established statistical means for analyzing the results obtained by the standardized testing are fully described in the literature. See: Body, Dr. Michael R., Principles & Practice of Oncology, PPO Updates, Volume 3, Number 10, October 1989, for an in depth description of the testing protocol; and Paull, K. D., "Display and Analysis of Patterns of Differential Activity of Drugs Against Human Tumor Cell Lines; Development of Mean Graph and COMPARE Algorithm", Journal of the National Cancer Institute Reports, Vol. 81, No. 14, Page 1088, Jul. 14, 1989 for a description of the methods of statistical analysis. Both of these references are incorporated herein by this reference thereto.

In another assay the test system is SF-295. In words: NCI human tumor cell line screen, CNS SF-295. Conditions: for GI-50 / TGI: Human cancer cell; for LC-50: Human cancer cells.
From the text: (§3) Current research in the control of cancer in the United States is coordinated by the National Cancer Institute (NCI). To determine whether a substance has anti-cancer properties, the NCI has established a systematic protocol. This protocol, which involves the testing of a substance against a standard cell line panel containing 60 human tumor cell lines, has been verified and has been accepted in scientific circles. The protocol, and the established statistical means for analyzing the results obtained by the standardized testing are fully described in the literature. See: Body, Dr. Michael R., Principles & Practice of Oncology, PPO Updates, Volume 3, Number 10, October 1989, for an in depth description of the testing protocol; and Paull, K. D., "Display and Analysis of Patterns of Differential Activity of Drugs Against Human Tumor Cell Lines; Development of Mean Graph and COMPARE Algorithm", Journal of the National Cancer Institute Reports, Vol. 81, No. 14, Page 1088, Jul. 14, 1989 for a description of the methods of statistical analysis. Both of these references are incorporated herein by this reference thereto.
as §1

The next assay has as its system A498. In words: NCI human tumor cell line screen, renal A498. Conditions: for GI-50 / TGI: Human cancer cell; for LC-50: Human cancer cells.
From the text: as §2

Another assay deals with NCI-460. In words: NCI human tumor cell line screen, Lung-NSC NCI-460. Conditions: for GI-50 / TGI: Human cancer cell; for LC-50: Human cancer cells.
From the text: as §2

The next assay has as its system KM20L2. Description: NCI human tumor cell line screen, colon KM20L2. To be noted: for GI-50 / TGI: Human cancer cell; for LC-50: Human cancer cells.
From the text: as §2

A further assay relates to SK-MEL-3. Description: NCI human tumor cell line screen, melanoma SK-MEL-3. Conditions: for GI-50 / TGI: Human cancer cell; for LC-50: Human cancer cells.
From the text: as §3, §1

What is called TGI is the concentration at which net growth stops. Low values mean greater sensitivity of the cells, high ones lower sensitivity of the cells.

Some results are limits rather than exact numbers.

R-Doe-isodolastatin 10: the “human cancer cell line activity when compared with Dolastatin 10” value in the assay on human cancer cell line is listed as “does not result in any significant difference”.
As to “[2S-[1[1R*(R*),2S*],2R*[1S*,2S*]]]-N,N-dimethyl-L-valyl-N-[2-methoxy-4-[2-[1-methoxy-2-methyl-3-oxo-3-[[2-(2-chlor-phenyl)-ethyl]amino]propyl]-1-pyrrolidinyl-1-(methylpropyl)-4-oxo butyl]-N-methyl-L-valineamide [Peptide 6g]”, the ED-50 in the assay on P-388 is 0.000289 µg/mL. In addition, the GI-50 in the assay with OVCAR-3, in the assay with SF-295, in the assay with A498, with NCI-460, with KM20L2 and in the assay with SK-MEL-3 was less than 0.000001 µg/mL throughout. The TGI in the assay with OVCAR-3 was less than 0.001 ng/mL; in the assay with SF-295 it was more than 10 ng/mL; in the assay on A498, 2 ng/mL; in the assay on NCI-460, 0.11 ng/mL; in the assay with KM20L2, 0.38 ng/mL; in the assay with SK-MEL-3 it was more than 10 ng/mL. The LC-50 with OVCAR-3, in the assay with SF-295, with A498, in the assay on NCI-460, with KM20L2 and in the assay with SK-MEL-3 was more than 0.01 µg/mL throughout.
The substance “[2S-[1[1R*(R*),2S*],2R*[1S*,2S*]]]-N,N-dimethyl-L-valyl-N-[2-methoxy-4-[2-[1-methoxy-2-methyl-3-oxo-3-[[2-(4-chlor-phenyl)-ethyl]amino]propyl]-1-pyrrolidinyl-1-(methylpropyl)-4-oxo butyl]-N-methyl-L-valineamide [Peptide 6c]” showed an ED-50 with P-388 of 0.00553 µg/mL. Also, the GI-50 in the assay with OVCAR-3 was less than 0.000001 µg/mL; in the assay on SF-295, 0.000010 µg/mL; with A498, 0.00062 µg/mL; with NCI-460 it was less than 0.000001 µg/mL; with KM20L2, less than 0.000001 µg/mL; in the assay with SK-MEL-3, less than 0.000001 µg/mL. Besides, the TGI was less than 0.001 ng/mL in the assay with OVCAR-3; 1.9 ng/mL in the assay with SF-295; more than 10 ng/mL in the assay on A498; 1.1 ng/mL with NCI-460; 1.1 ng/mL in the assay with KM20L2; more than 10 ng/mL in the assay on SK-MEL-3. In addition, the LC-50 in the assay with OVCAR-3, in the assay on SF-295, in the assay with A498, in the assay on NCI-460, in the assay with KM20L2 and in the assay on SK-MEL-3 was more than 0.01 µg/mL each time.
For “[2S-[1[1R*(R*),2S*],2R*[1S*,2S*]]]-N,N-dimethyl-L-valyl-N-[2-methoxy-4-[2-[1-methoxy-2-methyl-3-oxo-3-[[2-(4-nitro-phenyl)-ethyl]amino]propyl]-1-pyrrolidinyl-1-(methylpropyl)-4-oxo butyl]-N-methyl-L-valineamide [Peptide 6b]”, in the assay on P-388, the ED-50 stood at 0.0459 µg/mL. For the same substance, the GI-50 in the assay on OVCAR-3 amounted to 0.00024 µg/mL; in the assay on SF-295, 0.00035 µg/mL; in the assay on A498 it was 0.00064 µg/mL; in the assay with NCI-460, 0.00028 µg/mL; with KM20L2 it was 0.0003 µg/mL; with SK-MEL-3, 0.00012 µg/mL. Also, the concentration for total growth inhibition (TGI) is 0.65 ng/mL in the assay on OVCAR-3; more than 10 ng/mL with SF-295; more than 10 ng/mL with A498; 1.2 ng/mL with NCI-460; 1.3 ng/mL in the assay with KM20L2; 1.3 ng/mL in the assay on SK-MEL-3. Further, the LC-50 in the assay on OVCAR-3, with SF-295, in the assay on A498, with NCI-460, in the assay on KM20L2 and with SK-MEL-3 was more than 0.01 µg/mL in each case.
As to “[2S-[1[1R*(R*),2S],2R*[1S*,2S*]]]-N,N-dimethyl-L-valyl-N-[2-methoxy-4-[2-[1-methoxy-2-methyl-3-oxo-3-[[2-(3,4-dimethoxy-phenyl)-ethyl]amino]propyl]-1- pyrrolidinyl-1-(methylpropyl)-4-oxobutyl]-N-methyl-L-valineamide [Peptide 6a]”, the ED-50 in the assay with P-388 came out at 0.0035 µg/mL. Further, the GI-50 was 0.000007 µg/mL in the assay with OVCAR-3; 0.000029 µg/mL with SF-295; 0.000016 µg/mL in the assay on A498; 0.000031 µg/mL in the assay on NCI-460; 0.000025 µg/mL in the assay with KM20L2; 0.000018 µg/mL in the assay on SK-MEL-3. Moreover, the TGI is 0.061 ng/mL in the assay on OVCAR-3; 0.083 ng/mL with SF-295; more than 0.1 ng/mL with A498; 0.094 ng/mL in the assay with NCI-460; 0.061 ng/mL in the assay with KM20L2; 0.058 ng/mL in the assay with SK-MEL-3. Besides, the LC-50 with OVCAR-3, with SF-295, in the assay with A498, in the assay on NCI-460, with KM20L2 and in the assay on SK-MEL-3 was more than 0.0001 µg/mL throughout.

Source of the values: patent publication US5635483A, “Tumor inhibiting tetrapeptide bearing modified phenethyl amides” (priority 1992, dated 1997).
